Tests used:
PC-3 cells [1] = assay type: cell-based, human; details: MTT 24 h; NaCl salt at 160 μg/mL; free phospholipid
Experimental: Cells were seeded into 96-well plates at the density of 1×10^4 cells per well and incubated overnight. […] MTT assays (3-(4,5-dimethylthiazol-2-yl)-2,5-diphenyl tetrazolium bromide, Sigma) were performed following the manufacture's protocol. The absorbance at 570 nm was measured by a microplate reader (Synergy Mx, BioTeK). All measurements were performed in sextuplicate.

SCC VII cells = assay: CRT presentation, ATP and HMGB-1 release; assay type: cell-based, murine; details: control
Experimental: (§1) CRT expression on cell surface in flow cytometry assessment. T24, UMUC2, UPPL-1541, BBN963, B16F10, and SCC VII cells are seeded into the 6 wells plate at 1×10^6 per well. After overnight incubation, the cells were treated with NaCl particles ([…]) (160 μg/mL) for 2 h. PBS treated cells were used as a control. All the cells were collected by cell […], and incubated with an Alexa Fluor® 647-conjugated anti-CRT antibody (ab196159, 1/500. Abcam) for 30 min at 4° C. The cells were incubated in 500 μL PBS containing 50 μg/mL propidium iodide before washing and assessment on a flow cytometer. The data were expressed in histogram compared to the PBS treated control cells. Cells were seeded into 96-well plates at the density of 1×10^4 cells per well and incubated overnight. Then the cells were treated with […] dispersed in PBS at a dose range of 13.2-320 μg/mL for 1, 2, 4 h and 24 h. Cell supernatant was collected after 1-4 h incubation and tested in ATP 1step Luminescence Assay System, 100 mL ATP Assay Kit (PerkinElmer, US) following the manufacture's protocol. […] The luminescence was measured by a microplate reader (Synergy Mx, BioTeK). All measurements were performed in sextuplicate. Cell supernatant was collected after 24 h incubation and tested in an ELISA kit (IBL International GmbH), according to the manufacturer's instructions.

B16F10 cells = assay: CRT presentation, ATP and HMGB-1 release; assay type: cell-based, murine; details: control
Experimental: as §1

PC-3 cells [2] = assay: Necrosis inhibition study (LDH release); assay type: cell-based, human; details: PC-3 cells pre-incubated with inhibitor 1 h, then PSCNPs
Experimental: PC-3 cells were plated overnight at a density of 1×10^4 cells per well in a 96-well plate. These cells were pre-treated with necrosis inhibitor glycine (5 mM) or capsase-1 inhibitor Ac-YVAD-cmk (30 μg/mL) for 1 h, and then incubated with […] (160 or 320 μg/mL) for 6 h. Cell without glycine or Ac-YVAD-cmk treatment were studied as controls. Supernatants were collected and the LDH contents were analyzed by LDH Assay Kit-WST (CT01-05, Dojindo, Japan). The results were normalized to PBS treated control cells.

[3] = assay type: physicochemical; details: pH 5.5
Experimental: were dispersed in 100 μl ammonium acetate buffers (pH=5.5 or pH=7) and added into a Slide-A-LyzerTM MINI Dialysis Device (MWCO=2K, Cat #69550, Thermofisher, US). Place the unite into a 5 mL Eppendorf tube containing 4.5 mL ammonium acetate buffer. Keep the tube on the shaker (20 rpm) at room temperature. […] All measurements were performed following the manufacture's protocol and repeated in sextuplicate.

PC-3 tumor xenografts = assay: In vivo therapy study, PC-3 tumor model; details: mouse
Experimental: Animal studied were performed according to a protocol approved by the Institutional Animal Care and Use Committee (IACUC) of the University of Georgia. The animals were maintained under pathogen-free conditions. PC-3 tumor model was generated by subcutaneously injecting 2×10^6 cells in 50 μL PBS into the right flank of 5-6 week old male athymic nude mice (Charles River). U-87 MG tumor model was generated in female athymic nude mice (Charles River) following the same method as PC-3 model. B16F10 tumor model was generated by subcutaneously injecting 2×10^5 cells in 50 μL PBS into the right flank of 5-6 week old female C57BU6 mice (Charles River). SCC VII tumor model was generated by subcutaneously injecting […] in 50 μL PBS into the right flank of 5-6 week old female C3H/HeN mice (Charles River). UPPL-1541 tumor model was generated by subcutaneously injecting 1×10^6 cells in 50 μL PBS into the right flank of 5-6 week old female C57BL6 mice (Charles River).
For therapy studies, PC-3 tumor bearing mice were randomly divided into 2 groups (n=5 for each group). When the average tumor volume was about 100 mm^3, PSCNPs (9 mg/mL, 50 μL) were intratumorally injected on day 0, 2 and 4. For control, saline at the same volume was injected. […] The tumor was measured in two dimensions with a caliper, and the tumor volume was estimated as (length)×(width) 2/2. […]

Molecule	toxicity to PC-3 cells (PC-3 cells [1])	reduction of PSCNP-induced LDH release (PC-3 cells [2])	further results
[Cl-].[Na+] [NaCl salt, NaCl]	no toxicity		release of ICD biomarkers (ATP and HMGB-1) (SCC VII cells): negligible impact; release of ICD biomarkers (ATP and HMGB-1) (B16F10 cells): negligible impact
Ac-YVAD-cmk		60.9%	
1,2-distearoyl-sn-glycero-3-phosphoethanolamine-N-[amino(polyethylene glycol)-2000] (ammonium salt) [free phospholipid]	no toxicity		
Phospholipid-coated Sodium Chloride Nanoparticles [PSCNPs]			effect of lowering pH to 5.5 on nanoparticle degradation [3]: did not accelerate nanoparticle degradation; toxicity in major organs (PC-3 tumor xenografts): no sign of toxicity
NCC(=O)O [glycine]		72.9%	

— US20220096539A1, “SALT NANOPARTICLES AND COMPOSITIONS AND METHODS OF USE THEREOF” (priority 2019, published 2022)
